Series [1] concerns advanced or metastatic solid tumors, including lymphoma. The series can be described thus: Phase I/II study of azacitidine with nanoparticle albumin bound paclitaxel. It is filed as in vivo, human. As to conditions: azacitidine sc days 1-5, then paclitaxel 100 mg/m^2 days 8, 15, 22 of 28-day cycle. Here is the method:
Patients with evaluable advanced or metastatic solid tumors, including lymphoma, adequate organ function, PS 0-2, and unlimited prior cytotoxic chemotherapies, including taxanes, were eligible. Cohorts of 3-6 patients were enrolled and treated.
Escalating doses of azacitidine (75-100 mg/m^2) were administered to patients subcutaneously on days 1-5, followed by a fixed dose of paclitaxel ([…]) on days 8, 15, and 22 of a 28-day cycle, for a total of 6 cycles. Serum and/or tissue samples, where appropriate, were collected for correlative studies.
Patients were initially permitted to have an unlimited number of prior chemotherapies. […] All affected patients had 4 or more prior cytotoxic regimens. […] Cohort 3 was treated at the next dose level (azacitidine 100 mg/m^2). […] Therefore, the maximum tolerated dose (MTD) of azacitidine in this regimen is 75 mg/m^2. […] To date, 16 patients have enrolled in the phase I part. Two patients were removed before completing cycle 1 because of disease progression. One patient was removed after cycle 4 for noncompliance.

Series [2] concerns mice implanted with H460 cell lines. The series can be described thus: Tolerable dose of decitabine, viability (weight loss and death). It is filed as in vivo, SCID mice. The protocol:
To establish a maximally tolerated dose to be used in experiments involving pretreatment with decitabine, groups of mice implanted with H460 cell lines were tested at four dose levels of decitabine, i.e., 0.75, 1.5, 2, and 4 mg/kg, administered intraperitoneally as a single dose and monitored for viability (weight loss and death). Two mice from each group were killed 48 hours after completing decitabine treatment alone and tumor xenografts harvested to affirm SPARC-expression status. For combination drug treatment, Abraxane® was administered by tail vein injection at 30 mg/kg/d for 5 consecutive days. Taxol and decitabine were used at 13.4 mg/kg/d and 1.5 mg/kg/d, respectively. […] At the end of drug treatment, the mice were killed. Xenografts were harvested and assayed to determine SPARC status.
The study evaluates tumor SPARC expression upregulation on treatment with decitabine in vitro and in vivo. To establish a tolerable dose to be used in experiments in vivo, groups of mice implanted with H460 cell lines were tested at four dose levels of decitabine, i.e., 0.75, 1.5, 2, and 4 mg/kg, respectively. This is based on prior publication showing that decitabine administered twice daily intraperitoneally for 5 days was toxic at 10 mg/kg/dose, and 2 mg/kg dose was associated with mild toxicity (Guo, Z S et al Cancer Res 2006 22:1105-1113). […] Nevertheless, decitabine at 2 and 4 mg/kg was toxic with 6/8 (75%) mice dead between 8 and 12 days after only one decitabine dose (without Abraxane® treatment). Decitabine dose at 1.5 mg/kg was subsequently used in the combination experiments.

Series [3] has as its system SPARC. The series is described as follows: SPARC promoter methylation (MSP) and SPARC expression (RT-PCR, Western blot) in NSCLC cell lines in vitro. It is filed as cell-based, human. The settings on record: 3 days in vitro. Here is the method: Total RNA was extracted from the samples with Trizol reagent (Invitrogen; Carlsbad, Calif.), and first-strand complementary DNA was generated using SuperScript III First-Strand Synthesis System (Invitrogen). The forward polymerase chain reaction (PCR) amplification primer of SPARC was 5′-[…]-3′ (Ex8-S, SEQ ID NO:1), and the reverse primer was 5-[…]-3′ (Ex9-AS, SEQ ID NO:2). Semiquantitative PCR was carried out for 4 minutes at 95° C. for initial denaturation, followed by 33 cycles of 94° C. for 25 seconds, 56° C. for 25 seconds, and 68° C. for 40 seconds. Glyceraldehyde-3-phosphate dehydrogenase (GAPDH) was used as endogenous control. Quantitative real-time (RT) PCR was done with SYBR GreenER qPCR superMix for ABI PRISM (Invitrogen) using ABI 7300 RT PCR system (Invitrogen), and GAPDH was used as a housekeeping gene for purpose of normalization.
The objective of this study was to determine if demethylation of the promoter region of the SPARC gene results in reexpression of the SPARC gene in cancer cells. DNA methylation in gene promoter regions is a mechanism to silence gene expression. The loss of SPARC expression in a large proportion of NSCLC specimens may be due to the methylation in the promoter region of SPARC gene was investigated. Representative samples of NSCLC cell lines or PD xenografts were treated with decitabine (5 μM) in vitro for three days and promoter methylation was analyzed.
Genomic DNA was obtained from cell lines and primary tumors by using DNeasy Blood and Tissue Kit (Qiagen; Valencia, Calif.) according to the manufacturer's handbook. The DNA methylation pattern in the CpG island of SPARC was determined using the method of methylation-specific PCR (MSP) and with the EZ DNA Methylation Kit (Zymo research, Irvine, Calif.). Primers for the methylated reaction were Sparc-unmsp-F: 5′-[…]-3′ (sense, SEQ ID NO:3), Sparcunmsp-R: 5′-[…]-3′ (antisense, SEQ ID NO:4), sparc-msp-F: 5′-[…]-3′ (sense, SEQ ID NO:5), and sparc-msp-R: 5′-[…]-3′ (antisense, SEQ ID NO:6). PCR amplification was carried out with bisulfite-treated DNA as a template using specific primer sequences for the methylated and unmethylated status of the gene. Water blanks were included with each assay. PCR amplification was carried out for 12 minutes at 94° C. for initial denaturation, followed by 40 cycles of 94° C. for 30 seconds, 58° C. for 25 seconds, and 68° C. for 45 seconds. Results were confirmed by repeating the bisulfate treatment and MSP for all samples. PCR products were visualized on 1.5% agarose gels.
Western blot analysis was carried out using standard methods. Polyclonal antihuman SPARC antibody was purchased from R&D System (Minneapolis, Minn.). […] The levels of β-actin (Sigma) were measured as control for equal loading. […]
Background: Immunoblotting shows a protein as a band on a membrane.

For series [4] the following is noted: cited from earlier work.
The test system of series [5] is SPARC. The series can be described thus: SPARC expression in NSCLC xenografts in vivo. On the set-up: species or system SCID mice. Here is the method: Western blot analysis was carried out using standard methods. Polyclonal antihuman SPARC antibody was purchased from R&D System (Minneapolis, Minn.). NSCLC cell lines A549, H460, and H157 were treated with 5 μM decitabine for 3 days in vitro and then harvested for RT-PCR and Western blot analysis. PD NSCLC xenografts and H460 xenografts treated with or without decitabine at 1.5 mg/kg/d. Xenografts were harvested for SPARC expression analysis. GAPDH were used as the endogenous control. Xenograft lysates were prepared and subjected to immunoblot analysis using 50 μg of cellular protein as described previously (Yu, C. et al. Blood 2003 102:3765-3774). The levels of β-actin (Sigma) were measured as control for equal loading. Immunoblots were developed with enhanced chemiluminescence (Amersham Bioscience, Golden Valley, Minn.).
To establish a maximally tolerated dose to be used in experiments involving pretreatment with decitabine, groups of mice implanted with H460 cell lines were tested at four dose levels of decitabine, i.e., 0.75, 1.5, 2, and 4 mg/kg, administered intraperitoneally as a single dose and monitored for viability (weight loss and death). Two mice from each group were killed 48 hours after completing decitabine treatment alone and tumor xenografts harvested to affirm SPARC-expression status. […]

The next series has as its system NSCLC_16465 xenograft. The series is described as follows: Tumor xenograft growth in vivo, SPARC-negative PD NSCLC xenograft. On the set-up: species or system SCID mice. As to conditions: taxol 13.4 mg/kg. Here is the method: (§1) Experimental studies were carried out using 6- to 8-week-old CB.17 severe combined immunodeficiency (SCID)/SCID with an average body weight ˜25 g. H460 (5×10^6 cells) or PD NSCLC xenografts (mouse-to-mouse passage), which were cut into small fragments (2-3 mm in size), were implanted subcutaneously at the flank region. Tumor growth was monitored by periodic visual inspection at the site of implantation, and the dimensions of the xenografts were measured every 2 to 3 days. Tumor volume was calculated using the following formula: V=LD×(SD)^2/2, where V is the tumor volume, LD is the longest tumor diameter, and SD is the shortest tumor diameter.
(§2) To establish a maximally tolerated dose to be used in experiments involving pretreatment with decitabine, groups of mice implanted with H460 cell lines were tested at four dose levels of decitabine, i.e., 0.75, 1.5, 2, and 4 mg/kg, administered intraperitoneally as a single dose and monitored for viability (weight loss and death). […]
(§3) To describe the observed variability in the in vivo data and test for differences between groups, a multivariate linear model was fit to each dependent variable (tumor volume). […] Difference was considered statistically significant when the calculated p value was less than 0.05.

Another series has as its system NSCLC_16591 xenograft. Described as above. More on the design: species or system SCID mice. The settings on record: Abraxane 30 mg/kg, taxol 13.4 mg/kg (equitoxic). The protocol: as §1, §2, §3
The next series has as its system NSCLC_16372 xenograft. The series can be described thus: Tumor xenograft growth in vivo, SPARC-positive PD NSCLC xenograft. As to conditions: Abraxane 30 mg/kg, taxol 13.4 mg/kg (equitoxic). On the set-up: species or system SCID mice. The protocol: as §1, §2, §3
The subject of another series is NSCLC_15946 xenograft. The series can be described thus: Tumor xenograft growth in vivo, SPARC-intermediate PD NSCLC xenograft. More on the design: species or system SCID mice. As to conditions: Abraxane 30 mg/kg, taxol 13.4 mg/kg (equitoxic). The protocol:
as §1, §2, §3

Where [6] appears, read: decitabine at 2 and 4 mg/kg ip, without Abraxane treatment.

Read-outs that look alike come from different tables or passages of the source.

As for `Nc1ncn([C@@H]2O[C@H](CO)[C@@H](O)[C@H]2O)c(=O)n1` [azacitidine, 5-azacytidine], the “maximum tolerated dose (MTD) of azacitidine in this regimen” value in series [1] is reported as 75 mg/m^2.

Regarding `Nc1ncn([C@H]2C[C@H](O)[C@@H](CO)O2)c(=O)n1` [decitabine, 5-aza-2′-deoxycytidine], the toxicity entry in [2] (decitabine at 2 and 4 mg/kg ip single dose) is “toxic”. In addition, in series [2] (setting [6]), the “mice dead between 8 and 12 days after only one decitabine dose” value came to 75%; the “mice dead between 8 and 12 days after only one decitabine dose (number/total)” value is recorded as 6/8. For the same compound, the “SPARC expression in NSCLC cell lines” value with SPARC [3] (A549, H460 and H157, decitabine 5 μM) is “up-regulated”. In addition, in the series with SPARC [3] (H460 cells, decitabine 5 μM), the SPARC expression result is on record as “up-regulated”, the “SPARC protein (Western blot)” value is on record as “upregulation” and the “unmethylated promoter of SPARC (methylation-specific PCR)” value is “increase”. Moreover, in series [4] (2 mg/kg dose twice daily intraperitoneally for 5 days), the toxicity entry is listed as “mild toxicity”. Further, the toxicity entry in series [4] (10 mg/kg/dose twice daily intraperitoneally for 5 days) is listed as “toxic”. In the series with SPARC [5] (NSCLC_16325, NSCLC_16384 and H460 xenografts, decitabine 1.5 mg/kg), the “SPARC expression in xenografts” value is listed as “up-regulated”. Besides, the “reexpression of SPARC in H460 xenografts” value in the series on SPARC [5] (decitabine 0.75, 1.5, 2 and 4 mg/kg ip) is “dose-dependent reexpression”.

In the case of `CC(=O)O[C@H]1C(=O)[C@@]2(C)[C@H]([C@H](OC(=O)c3ccccc3)[C@]3(O)C[C@H](OC(=O)[C@H](O)[C@@H](NC(=O)c4ccccc4)c4ccccc4)C(C)=C1C3(C)C)[C@]1(OC(C)=O)CO[C@@H]1C[C@@H]2O` [taxol], the “tumor growth compared with vehicle control” value in the series with NSCLC_16465 xenograft is on record as “no difference compared with vehicle control”; in the series on NSCLC_15946 xenograft, “significantly inhibited”. For the same compound, the “effect on tumor growth compared with vehicle control” value in the series with NSCLC_16591 xenograft is “Neither administration of taxol nor administration of Abraxane® showed any effect on tumor growth”. For the same compound, the “xenograft growth compared with vehicle control” value in the series on NSCLC_16372 xenograft is “suppressed”.

The values are drawn from patent US20190167629A1, “COMBINATION THERAPY METHODS FOR TREATING PROLIFERATIVE DISEASES” (Abraxis BioScience, LLC, priority 2010, published 2019).
